Data: ChEMBL document CHEMBL3244132, “Semisynthetic aminoglycoside antibacterials. 6. Synthesis of sisomicin, Antibiotic G-52, and novel 6'-substituted analogues of sisomicin from aminoglycoside 66-40C” (J Med Chem, 1978)
Activity calls are given as the source filed them.

Assays:
Format in all cases: functional
Serratia marcescens = test: Antimicrobial activity against Serratia marcescens Dalton by tube dilution method
Escherichia coli [1] = test: Antimicrobial activity against Escherichia coli ATCC 10536 by tube dilution method
Staphylococcus aureus [2] = test: Antimicrobial activity against Staphylococcus aureus Wood by tube dilution method
Pseudomonas aeruginosa [3] = test: Antimicrobial activity against Pseudomonas aeruginosa St. M. 762 by tube dilution method
Escherichia coli [4] = test: Antimicrobial activity against Escherichia coli Baker 2 carrying APH(3')-I by tube dilution method
Staphylococcus aureus [5] = test: Antimicrobial activity against Staphylococcus aureus Ziegler by tube dilution method
Providencia = test: Antimicrobial activity against Providencia 164 carrying AAC(2')-I by tube dilution method
Bacillus subtilis = test: Antimicrobial activity against Bacillus subtilis ATCC 6633 by tube dilution method
Streptococcus pyogenes [6] = test: Antimicrobial activity against Streptococcus pyogenes C by tube dilution method
Klebsiella pneumoniae [7] = test: Antimicrobial activity against Klebsiella pneumoniae Georgetown 3694 carrying APH(2'') by tube dilution method
Streptococcus pyogenes [8] = test: Antimicrobial activity against Streptococcus pyogenes 27 by tube dilution method
Escherichia coli [9] = test: Antimicrobial activity against Escherichia coli HL97/W677 carrying AAC(6') by tube dilution method
Pseudomonas aeruginosa [10] = test: Antimicrobial activity against Pseudomonas aeruginosa St. M. 1395 by tube dilution method
Streptococcus pyogenes [11] = test: Antimicrobial activity against Streptococcus pyogenes Alvarez by tube dilution method
Pseudomonas aeruginosa [12] = test: Antimicrobial activity against Pseudomonas aeruginosa Stone 130 carrying AAC(3) by tube dilution method
Trichomonas vaginalis = test: Antiprotozoal activity against Trichomonas vaginalis after 48 hrs
Pseudomonas aeruginosa [13] = test: Antimicrobial activity against Pseudomonas aeruginosa GN 315 carrying AAC(6') by tube dilution method
Staphylococcus aureus [14] = test: Antimicrobial activity against Staphylococcus aureus 59N by tube dilution method
Salmonella typhimurium = test: Antimicrobial activity against Salmonella typhimurium Gr. B. by tube dilution method; details: Salmonella enterica subsp. enterica serovar Typhimurium
Escherichia coli [15] = test: Antimicrobial activity against Escherichia coli LA290R55 carrying ANT(2'') by tube dilution method
Streptococcus pyogenes [16] = test: Antimicrobial activity against Streptococcus pyogenes Group A Cruz by tube dilution method
Histomonas meleagridis = test: Antiprotozoal activity against Histomonas meleagridis
Klebsiella pneumoniae [17] = test: Antimicrobial activity against Klebsiella pneumoniae Adler 17 carrying APH(3')-I by tube dilution method
Providencia rettgeri [18] = test: Antimicrobial activity against Providencia rettgeri Anderson by tube dilution method
Entamoeba histolytica = test: Antiprotozoal activity against Entamoeba histolytica JH
Providencia rettgeri [19] = test: Antimicrobial activity against Providencia rettgeri Membel by tube dilution method
Escherichia coli [20] = test: Antimicrobial activity against Escherichia coli JR88 carrying AAC(3) by tube dilution method
Proteus mirabilis = test: Antimicrobial activity against Proteus mirabilis Harding by tube dilution method
Staphylococcus aureus [21] = test: Antimicrobial activity against Staphylococcus aureus 209 P by tube dilution method

Measured: Activity

CN[C@@H]1[C@@H](O)[C@@H](O[C@@H]2[C@@H](O)[C@H](O[C@H]3OC(CNN)=CC[C@H]3N)[C@@H](N)C[C@H]2N)OC[C@]1(C)O
inactive: all assays above

CN[C@@H]1[C@@H](O)[C@@H](O[C@@H]2[C@@H](O)[C@H](O[C@H]3OC(CNOC)=CC[C@H]3N)[C@@H](N)C[C@H]2N)OC[C@]1(C)O
inactive: all assays above

CN[C@@H]1[C@@H](O)[C@@H](O[C@@H]2[C@@H](O)[C@H](O[C@H]3OC(C(C)N)CC[C@H]3N)[C@@H](N)C[C@H]2N)OC[C@]1(C)O (single isomer, unassigned)
inactive: Trichomonas vaginalis | Histomonas meleagridis | Entamoeba histolytica

CN[C@@H]1[C@@H](O)[C@@H](O[C@@H]2[C@@H](O)[C@H](O[C@H]3O[C@H](C(C)N)[C@@H](O)[C@H](O)[C@H]3N)[C@@H](N)C[C@H]2N)OC[C@]1(C)O (some centres not stated)
inactive: Trichomonas vaginalis | Histomonas meleagridis | Entamoeba histolytica

CN[C@@H]1[C@@H](O)[C@@H](O[C@@H]2[C@@H](O)[C@H](O[C@H]3OC(/C=N/N4CCOCC4)=CC[C@H]3N)[C@@H](N)C[C@H]2N)OC[C@]1(C)O
inactive: all assays above

CN[C@@H]1[C@@H](O)[C@@H](O[C@@H]2[C@@H](O)[C@H](O[C@H]3OC(/C=N\N)=CC[C@H]3N)[C@@H](N)C[C@H]2N)OC[C@]1(C)O
inactive: all assays above

CN[C@@H]1[C@@H](O)[C@@H](O[C@@H]2[C@@H](O)[C@H](O[C@H]3OC(CNN4CCOCC4)=CC[C@H]3N)[C@@H](N)C[C@H]2N)OC[C@]1(C)O
inactive: all assays above

CN[C@@H]1[C@@H](O)[C@@H](O[C@@H]2[C@@H](O)[C@H](O[C@H]3O[C@H](CN)[C@@H](O)[C@H](O)[C@H]3N)[C@@H](N)C[C@H]2N)OC[C@]1(C)O
inactive: Trichomonas vaginalis | Histomonas meleagridis | Entamoeba histolytica

CN[C@@H]1[C@@H](O)[C@@H](O[C@@H]2[C@@H](O)[C@H](O[C@H]3O[C@@H](CN)CC[C@H]3N)[C@@H](N)C[C@H]2N)OC[C@]1(C)O
inactive: Trichomonas vaginalis | Histomonas meleagridis | Entamoeba histolytica
